What is called EC50 is the concentration that produces a half-maximal response.

One assay concerns MCM4 mRNA in A3 cells. Nature of the assay: Real time PCR of MCM4 mRNA. It is filed as cell-based, human. The conditions noted are these: 10 μM, 72 h. The protocol: RNA was extracted from cultured cells using TRIzol® Reagent (Thermo Fisher Scientific). RNA quantity and quality were assessed by NanoDrop® (ND-1000 V3.7.1; Thermo Fisher Scientific). The High-Capacity cDNA Reverse Transcription Kit (Applied Biosystems) was utilized for cDNA synthesis following the manufacturer's instructions. Two microliters of cDNA at a final concentration of 10 ng/μl were mixed with GoTaq® qPCR MasterMix 1× (Promega) and 1 μM cDNA primers of each pair of primers (F/R) in a final volume reaction of 10 μl. Primers used are listed in Supplementary Table S2. The amplification conditions consisted of an initial step at 95°C for 10 min, followed by 40 cycles of 10 s at 95°C and 1 min at 60°C. Each qPCR was performed in duplicates or triplicates including no-template controls in an Abi QuantStudio 1 Flex Real-Time PCR System (Applied Biosystems). Relative transcript levels for each replication gene, was calculated using the 2ΔΔCt method for qPCR analysis after normalization with the housekeeping gene beta-actin (B-actin-F 5′-CCTGGCACCCAGCACAAT- 3′; B-actin-R 5′ - GGGCCGGACTCGTCATACT-3′).
Figure 6. […] Only genes with a mean normalized count >5 were analyzed. […] Statistical significance was determined using a two-sided unpaired t-test (ns, non-significant, *P < 0.05, **P < 0.01, ***P < 0.001 and ****P < 0.0001).
On the technique in general: Quantitative PCR measures a nucleic acid by following its amplification.

For another assay, the system named is THP1. As to the kind of experiment: Resazurin viability, 5 days. The assay is classed as cell-based, human. The conditions noted are these: THP1, C, Acute monocytic leukemia. The protocol: (§1) Cells were seeded in 96- or 384-well plates and incubated for 3 days for combination experiments or 5 days for single-drug exposure experiments. Resazurin (R7017, SigmaAldrich) was added to a final concentration of 0.01 mg/ml resazurin and fluorescence was measured at ex530/em590 after incubation for 2, 4 or 6 h. Curves were fitted using XLfit software (IDBS) or Prism 8.0 (Graphpad Software), and EC50 values were determined.
(§2) Supplementary Table S1: Effect of OGG1 inhibitors on cancer and non-transformed cell lines.
(§3) Cell lines were incubated with a dilution series of the indicated compounds for 5 days, and viability
(§4) assessed with resazurin. EC50-values were calculated based on the resulting dose -response curves.
(§5) The number of independent experiments is indicated for each value.
(§6) C=cancer;N=non- Disease EC50 n= EC50 n= EC50 n=
(§7) transformed (µM) (µM) (µM) […]
THP1 C Acute monocytic leukemia 17.8 4 19.2 2
On the technique in general: Resazurin is reduced to fluorescent resorufin, in cell work by metabolically active cells.

In a further assay the test system is A3. As to the kind of experiment: Resazurin viability, 5 days. It is filed as cell-based, human. The settings on record: A3, C, T-cell acute lymphoblastic leukemia. The protocol: as §1, §2, §3, §4, §5, §6
transformed (µM) (µM) (µM)

A further assay concerns Rec1. Nature of the assay: Resazurin viability, 5 days. It is filed as cell-based, human. The conditions noted are these: Rec1, C, B cell non-Hodgkin's lymphoma. The protocol: as §1, §2, §3, §4, §5, §6
Another assay relates to HCT116+Chr3. Nature of the assay: Resazurin viability, 5 days. It is filed as cell-based, human. The settings on record: HCT116+Chr3, C, Colorectal carcinoma with WT Chr3. The protocol: as §1, §2, §3, §4, §5, §6
The next assay concerns Daudi. As to the kind of experiment: Resazurin viability, 5 days. The assay is classed as cell-based, human. The conditions noted are these: C, Burkitt's lymphoma. The protocol: as §1, §2, §3, §4, §5, §6
For a further assay, the system named is H460. As to the kind of experiment: Resazurin viability, 5 days. The assay is classed as cell-based, human. The conditions noted are these: H460, C, Large cell lung carcinoma. The protocol:
as §1, §2, §3, §4, §5, §6

For another assay, the system named is MOLT4. Nature of the assay: Resazurin viability, 5 days. The settings on record: MOLT4, C, T-cell acute lymphoblastic leukemia. The assay is classed as cell-based, human. The protocol:
as §1, §2, §3, §4, §5, §6

The subject of a further assay is MCF7. As to the kind of experiment: Resazurin viability, 5 days. It is filed as cell-based, human. The conditions noted are these: MCF7, C, Breast adenocarcinoma. The protocol:
as §1, §2, §3, §4, §5, §6

For another assay, the system named is PL-21. Nature of the assay: Resazurin viability, 5 days. The settings on record: PL-21, C, Acute myeloid leukemia. It is filed as cell-based, human. The protocol: as §1, §2, §3, §4, §5, §6
The test system of another assay is DU145. As to the kind of experiment: Resazurin viability, 5 days. The assay is classed as cell-based, human. The settings on record: DU145, C, Prostate carcinoma. The protocol: as §1, §2, §3, §4, §5, §6
In another assay the test system is T98G. Nature of the assay: Resazurin viability, 5 days. It is filed as cell-based, human. The settings on record: C, Glioblastoma. The protocol: as §1, §2, §3, §4, §5, §6
A further assay has as its system SW1271. As to the kind of experiment: Resazurin viability, 5 days. The settings on record: SW1271, C, Small cell lung carcinoma. It is filed as cell-based, human. The protocol:
as §1, §2, §3, §4, §5, §6

The next assay concerns Hec59. As to the kind of experiment: Resazurin viability, 5 days. The assay is classed as cell-based, human. The conditions noted are these: Hec59, C, Endometrioid adenocarcinoma. The protocol:
as §1, §2, §3, §4, §5, §6

A further assay deals with U2OS. Nature of the assay: Resazurin viability, 5 days. The assay is classed as cell-based, human. The conditions noted are these: C, Osteosarcoma. The protocol:
as §1, §2, §3, §4, §5, §6

A further assay deals with K562. Nature of the assay: Resazurin viability, 5 days. It is filed as cell-based, human. The conditions noted are these: K562, C, Chronic myelogenous leukemia. The protocol: as §1, §2, §3, §4, §5, §6
Another assay relates to M059K. Nature of the assay: Resazurin viability, 5 days. The assay is classed as cell-based, human. The conditions noted are these: C, Glioblastoma. The protocol:
as §1, §2, §3, §4, §5, §6

For another assay, the system named is Hec59+Chr2. As to the kind of experiment: Resazurin viability, 5 days. The settings on record: Hec59+Chr2, C, Endometrioid adenocarcinoma with WT Chr2. The assay is classed as cell-based, human. The protocol: as §1, §2, §3, §4, §5, §6, §7
A further assay deals with NB-4. As to the kind of experiment: Resazurin viability, 5 days. It is filed as cell-based, human. The settings on record: NB-4, C, Acute promyelocytic leukemia. The protocol:
as §1, §2, §3, §4, §5, §6, §7

The test system of a further assay is MEF Ogg1(-/-). Nature of the assay: Resazurin viability, 5 days. The assay is classed as cell-based. The settings on record: N, Non-transformed mouse embryonic fibroblast. The protocol: as §1, §2, §3, §4, §5, §6, §7

Regarding `O=C(Nc1ccc(I)cc1)N1CCC(n2c(=O)[nH]c3c(Br)cccc32)CC1` [TH5487], the “MCM4 mRNA levels” value in the assay on MCM4 mRNA in A3 cells is reported as “slight but significant downregulation”. Besides, the 50% effective concentration (EC50) in the assay on THP1 is 17.8 µM; in the assay with A3 it was 10 µM; in the assay on Rec1, 13.7 µM; in the assay on HCT116+Chr3 it was 20.6 µM; in the assay on Daudi it was 16.6 µM; with H460, 10.1 µM. In addition, the concentration for a half-maximal effect (EC50) in the assay with MOLT4 came to 13.2 µM; with MCF7, 23.3 µM; with PL-21, 20.6 µM; with DU145, 13.2 µM; with T98G, 14.5 µM; with SW1271 it was 22 µM. Further, the concentration for a half-maximal effect (EC50) in the assay on Hec59 was 17 µM; in the assay with U2OS it was 19.5 µM; with K562 it was 16.7 µM; in the assay on M059K, 20.3 µM; in the assay on Hec59+Chr2, 15.7 µM; in the assay with NB-4 it was 4.8 µM. Moreover, the EC50 in the assay on MEF Ogg1(-/-) stood at 47.7 µM.

Turning to `O=C(Nc1ccc(Cl)c(Cl)c1)N1CCC(n2c(=O)[nH]c3c(-c4ccc(CO)nc4)cccc32)CC1` [TH5796, N-(3,4-Dichlorophenyl)-4-[4-[6-(hydroxymethyl)-3-pyridyl]-2-oxo-3H-benzimidazol-1-yl]piperidine-1-carbox amide], the half-maximal effective concentration (EC50) in the assay with THP1 (Homo sapiens, THP-1, 120 h) turned out to be 19.2 µM; in the assay on A3 (Homo sapiens, 120 h), 7.9 µM; with Rec1 (Homo sapiens, 120 h), 12.6 µM; in the assay on HCT116+Chr3 (Homo sapiens, 120 h), 16.7 µM; in the assay with Daudi (Homo sapiens, 120 h) it was 10.1 µM; in the assay on H460 (Homo sapiens, NCI-H460, 120 h), 14.4 µM. The EC50 with MOLT4 (Homo sapiens, MOLT-4, 120 h) is 12.6 µM; with MCF7 (Homo sapiens, 120 h) it was 26.5 µM; in the assay on PL-21 (Homo sapiens, 120 h), 10.2 µM; in the assay with DU145 (Homo sapiens, DU-145, 120 h), 10.7 µM; in the assay with T98G (Homo sapiens, 120 h), 18.5 µM; in the assay on SW1271 (Homo sapiens, 120 h) it was 24.6 µM. For the same molecule, the EC50 with Hec59 (Homo sapiens, 120 h) was 11.5 µM; with U2OS (Homo sapiens, 120 h), 16.1 µM; in the assay on K562 (Homo sapiens, 120 h), 21 µM; in the assay on M059K (Homo sapiens, 120 h) it was 19.4 µM; in the assay with Hec59+Chr2 (Homo sapiens, 120 h) it was 17.3 µM; in the assay on NB-4 (Homo sapiens, 120 h), 11.5 µM. In the assay with MEF Ogg1(-/-) (120 h), the EC50 is 45.8 µM.

`Cc1cc(NC(=O)N2CCC(n3c(=O)[nH]c4c(Br)cccc43)CC2)ccc1I` [TH6943, 4-(4-Bromo-2-oxo-3H-benzimidazol-1-yl)-N-(4-iodo-3-methyl-phenyl)piperidine-1-carboxamide]: the EC50 in the assay with A3 (Homo sapiens, 120 h) amounted to 9.8 µM; in the assay on Rec1 (Homo sapiens, 120 h) it was 14.8 µM; in the assay with HCT116+Chr3 (Homo sapiens, 120 h) it was 20.3 µM; in the assay on Daudi (Homo sapiens, 120 h), 12.1 µM; in the assay on H460 (Homo sapiens, NCI-H460, 120 h) it was 16.5 µM; in the assay on MOLT4 (Homo sapiens, MOLT-4, 120 h), 17.4 µM. In addition, the EC50 is 18.4 µM with PL-21 (Homo sapiens, 120 h); 3.1 µM in the assay on DU145 (Homo sapiens, DU-145, 120 h); 16.7 µM with T98G (Homo sapiens, 120 h); 25.1 µM in the assay on U2OS (Homo sapiens, 120 h); 27 µM in the assay with M059K (Homo sapiens, 120 h); 34.3 µM in the assay with MEF Ogg1(-/-) (120 h).

For the origin of these results see paper PMC7708037, “Targeting OGG1 arrests cancer cell proliferation by inducing replication stress” (Nucleic Acids Research, 2020).
